Values of other authors as cited in patent US20050171207A1, “Method and composition for combination treatment of neurodegenerative disorders” (Myriad Genetics, Incorporated, priority 2003, published 2005).
Read-outs that look alike come from different tables or passages of the source.

Assays:
[1] = test system: pain related chemo-somatosensory evoked potentials; details: 50 mg and 100 mg doses, human subjects
Aβ42 [2] = details: transgenic mouse model
Aβ42 [3] = details: CHO cells
mild-to-moderate AD [4] = details: in vivo
[5] = test system: Alzheimer's disease excitotoxic model; details: in vivo Alzheimer's disease excitotoxic model system
mild-to-moderate AD [6] = details: rofecoxib at 25 mg daily; naproxen in the same trial

In the case of `C[C@@H](C(=O)O)c1ccc(-c2ccccc2)c(F)c1` [R-flurbiprofen], the analgesic effect [1] is given as “produced an analgesic effect”, the “inhibition of COX activity” value (COX) is given as “negligibly inhibits COX activity” and the Aβ42 lowering (Aβ42 [2]) is given as “lower Aβ42”. The Aβ42 lowering (Aβ42 [3]) was “lower Aβ42”.
For `CC12CC3CC(C)(C1)CC(N)(C3)C2` [memantine], the “efficacy in treating mild-to-moderate AD” value (mild-to-moderate AD [4]) is listed as “showed efficacy”.
For `CS(=O)(=O)c1ccc(C2=C(c3ccccc3)C(=O)OC2)cc1` [rofecoxib], the neuroprotection [5] is listed as “provides neuroprotection” and the “efficacy for treating AD” value (mild-to-moderate AD [6]) is listed as “failed to show efficacy”.
For `COc1ccc2cc([C@H](C)C(=O)O)ccc2c1` [Naproxen], the “efficacy for treating AD” value (mild-to-moderate AD [6]) is listed as “failed to show efficacy”.
